Source: ChEMBL document CHEMBL1909046, “DrugMatrix in vitro pharmacology data”
pIC50, pKi: −log10 of the molar value.

Assays:
[1] = molecular target: T1, Type-2 angiotensin II receptor (Homo sapiens, UniProt P50052); format: cell-based; details: cho-k1; further: in other assays of this panel Not Active means under 50% inhibition at 10 µM
T1 sequence (P50052 whole entry): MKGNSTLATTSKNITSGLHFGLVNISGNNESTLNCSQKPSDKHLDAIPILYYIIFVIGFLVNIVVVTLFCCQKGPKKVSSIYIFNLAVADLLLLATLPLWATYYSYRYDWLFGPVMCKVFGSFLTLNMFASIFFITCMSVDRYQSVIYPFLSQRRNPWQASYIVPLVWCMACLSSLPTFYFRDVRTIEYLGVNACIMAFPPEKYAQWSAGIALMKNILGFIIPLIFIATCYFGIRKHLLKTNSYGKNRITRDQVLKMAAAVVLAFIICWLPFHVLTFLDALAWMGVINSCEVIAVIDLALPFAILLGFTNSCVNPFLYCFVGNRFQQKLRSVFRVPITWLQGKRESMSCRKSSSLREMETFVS

[2] = molecular target: T2, Vasoactive intestinal polypeptide receptor 1 (Homo sapiens, UniProt P32241); format: cell membranes, Membrane; details: ht-29; further: in other assays of this panel Not Active means under 50% inhibition at 10 µM
T2 sequence (P32241 whole entry): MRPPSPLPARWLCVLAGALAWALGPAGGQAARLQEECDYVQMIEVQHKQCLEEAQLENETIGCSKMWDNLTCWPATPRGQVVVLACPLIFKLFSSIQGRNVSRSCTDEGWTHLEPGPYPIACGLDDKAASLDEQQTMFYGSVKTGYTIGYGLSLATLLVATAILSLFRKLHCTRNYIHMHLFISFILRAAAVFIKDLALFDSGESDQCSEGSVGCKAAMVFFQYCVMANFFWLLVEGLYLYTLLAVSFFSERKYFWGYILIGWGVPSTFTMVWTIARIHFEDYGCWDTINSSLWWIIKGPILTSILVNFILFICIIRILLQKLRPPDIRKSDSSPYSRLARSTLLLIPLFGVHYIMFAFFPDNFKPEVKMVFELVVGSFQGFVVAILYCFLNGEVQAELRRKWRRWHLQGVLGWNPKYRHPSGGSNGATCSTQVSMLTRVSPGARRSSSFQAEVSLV

[3] = molecular target: T3, 3-hydroxy-3-methylglutaryl-coenzyme A reductase (Homo sapiens, UniProt P04035); set-up: species or system Escherichia coli;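 further: enzyme inhibition assay of HMG-CoA reductase using radiolabeled [14C]HMG-CoA as substrate; in other assays of this panel Not Active means under 50% inhibition at 10 µM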
T3 sequence (P04035 whole entry): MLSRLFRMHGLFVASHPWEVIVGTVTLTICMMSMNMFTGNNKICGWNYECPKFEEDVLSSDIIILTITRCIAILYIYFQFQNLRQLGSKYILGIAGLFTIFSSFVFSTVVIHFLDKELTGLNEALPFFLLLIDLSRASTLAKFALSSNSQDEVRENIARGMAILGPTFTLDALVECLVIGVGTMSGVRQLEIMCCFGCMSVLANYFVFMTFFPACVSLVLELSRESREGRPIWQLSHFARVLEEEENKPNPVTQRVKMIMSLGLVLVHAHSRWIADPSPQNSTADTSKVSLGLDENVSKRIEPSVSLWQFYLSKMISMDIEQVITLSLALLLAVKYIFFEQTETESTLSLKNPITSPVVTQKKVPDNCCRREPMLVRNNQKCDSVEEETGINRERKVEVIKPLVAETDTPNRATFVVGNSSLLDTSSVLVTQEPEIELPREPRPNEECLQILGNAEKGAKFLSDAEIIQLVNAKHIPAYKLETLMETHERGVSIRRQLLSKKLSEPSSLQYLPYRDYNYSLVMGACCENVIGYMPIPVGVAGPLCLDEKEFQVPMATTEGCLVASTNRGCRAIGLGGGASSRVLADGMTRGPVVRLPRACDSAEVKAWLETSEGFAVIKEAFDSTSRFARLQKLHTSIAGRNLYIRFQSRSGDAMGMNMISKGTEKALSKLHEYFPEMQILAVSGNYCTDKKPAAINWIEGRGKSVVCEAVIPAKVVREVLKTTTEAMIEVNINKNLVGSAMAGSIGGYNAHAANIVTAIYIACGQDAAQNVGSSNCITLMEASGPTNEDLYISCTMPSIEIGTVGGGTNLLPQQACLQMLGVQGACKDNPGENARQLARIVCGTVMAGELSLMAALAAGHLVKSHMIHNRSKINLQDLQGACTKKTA

[4] = molecular target: T4, Cysteinyl leukotriene receptor 1 (Homo sapiens, UniProt Q9Y271); format: cell membranes, CHO-K1, Membrane; details: cho-k1; further: in other assays of this panel Not Active means under 50% inhibition at 10 µM
T4 sequence (Q9Y271 whole entry): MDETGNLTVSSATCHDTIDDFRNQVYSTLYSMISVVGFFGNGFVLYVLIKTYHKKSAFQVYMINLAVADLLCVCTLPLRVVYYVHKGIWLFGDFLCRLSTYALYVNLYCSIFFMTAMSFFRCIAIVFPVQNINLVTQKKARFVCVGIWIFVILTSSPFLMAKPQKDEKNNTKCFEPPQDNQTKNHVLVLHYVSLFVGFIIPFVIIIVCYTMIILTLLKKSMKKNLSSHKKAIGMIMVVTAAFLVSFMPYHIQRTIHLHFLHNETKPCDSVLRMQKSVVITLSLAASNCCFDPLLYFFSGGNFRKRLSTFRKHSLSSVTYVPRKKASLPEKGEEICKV

[5] = molecular target: Platelet-activating factor receptor (Homo sapiens, UniProt P25105); format: tissue-based; further: in other assays of this panel Not Active means under 50% inhibition at 10 µM
Sequence of Platelet-activating factor receptor (P25105 whole entry): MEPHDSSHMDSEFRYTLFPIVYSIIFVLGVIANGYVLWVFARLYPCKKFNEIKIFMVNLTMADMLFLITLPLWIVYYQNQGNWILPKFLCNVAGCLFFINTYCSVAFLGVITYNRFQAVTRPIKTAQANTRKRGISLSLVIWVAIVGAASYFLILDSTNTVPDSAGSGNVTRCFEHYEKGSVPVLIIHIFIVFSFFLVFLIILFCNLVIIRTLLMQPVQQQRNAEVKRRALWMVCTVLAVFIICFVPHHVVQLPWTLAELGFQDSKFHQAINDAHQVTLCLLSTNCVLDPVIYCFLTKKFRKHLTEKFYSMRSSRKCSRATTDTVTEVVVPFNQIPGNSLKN

Progesterone receptor = molecular target: T5, Progesterone receptor (Bos taurus, UniProt Q690N0); assay: DRUGMATRIX: Progesterone radioligand binding (ligand: [3H] R-5020); format: tissue-based, Uterus; details: Not Active = under 50% inhibition at 10 µM
T5 sequence (Q690N0 whole entry): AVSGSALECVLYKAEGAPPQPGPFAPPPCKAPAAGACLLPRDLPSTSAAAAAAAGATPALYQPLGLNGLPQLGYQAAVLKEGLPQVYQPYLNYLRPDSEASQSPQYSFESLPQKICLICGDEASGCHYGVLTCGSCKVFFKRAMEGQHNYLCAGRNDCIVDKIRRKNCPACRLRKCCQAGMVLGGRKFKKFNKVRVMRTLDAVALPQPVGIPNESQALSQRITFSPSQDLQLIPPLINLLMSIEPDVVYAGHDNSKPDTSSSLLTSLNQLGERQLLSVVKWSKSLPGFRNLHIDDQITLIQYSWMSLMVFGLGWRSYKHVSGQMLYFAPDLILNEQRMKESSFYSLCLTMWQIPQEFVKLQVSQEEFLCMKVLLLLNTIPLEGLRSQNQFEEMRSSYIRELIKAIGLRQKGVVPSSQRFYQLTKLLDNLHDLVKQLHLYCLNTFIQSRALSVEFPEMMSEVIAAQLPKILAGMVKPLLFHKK

[6] = molecular target: Mitogen-activated protein kinase 1 (Homo sapiens, UniProt P28482); assay: DRUGMATRIX: Protein Serine/Threonine Kinase, ERK2 enzyme inhibition (substrate: Myelin Basic Protein); set-up: species or system Escherichia coli; details: Not Active = under 50% inhibition at 10 µM
Sequence of Mitogen-activated protein kinase 1 (P28482 whole entry): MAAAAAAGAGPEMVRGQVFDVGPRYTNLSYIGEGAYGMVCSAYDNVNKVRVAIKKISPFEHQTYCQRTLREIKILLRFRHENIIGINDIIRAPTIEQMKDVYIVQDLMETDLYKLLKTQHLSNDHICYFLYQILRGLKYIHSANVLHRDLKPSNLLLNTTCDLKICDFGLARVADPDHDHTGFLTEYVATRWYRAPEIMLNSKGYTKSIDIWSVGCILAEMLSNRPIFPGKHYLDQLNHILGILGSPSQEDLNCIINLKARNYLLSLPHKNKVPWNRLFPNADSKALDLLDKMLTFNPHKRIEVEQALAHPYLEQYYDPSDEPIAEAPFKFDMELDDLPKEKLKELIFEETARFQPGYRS

Row | SMILES | IC50 [1] | IC50 [2] | IC50 [3] | IC50 [4] | IC50 [5] | IC50 (Progesterone receptor) | IC50 [6] | pIC50 (Progesterone receptor; read-out: IC50) | pKi (Progesterone receptor; read-out: Ki)
1 | COc1cc(NC(C)CCCN)c2ncccc2c1 (stereo unspecified) [PRIMAQUINE] | Not Active | Not Active | Not Active | Not Active | Not Active | Not Active | Not Active | – | –
2 | Cc1c(N)nc([C@H](CC(N)=O)NC[C@H](N)C(N)=O)nc1C(=O)N[C@H](C(=O)N[C@H](C)[C@@H](O)[C@H](C)C(=O)N[C@H](C(=O)NCCc1nc(-c2nc(C(=O)NCCC[S+](C)C)cs2)cs1)[C@@H](C)O)[C@@H](O[C@@H]1O[C@@H](CO)[C@@H](O)[C@H](O)[C@@H]1O[C@H]1O[C@H](CO)[C@@H](O)[C@H](OC(N)=O)[C@@H]1O)c1c[nH]cn1.[Br-] [BLEOMYCIN A2] | Not Active | Not Active | Not Active | Not Active | Not Active | Not Active | Not Active | – | –
3 | O=C(O)CNCP(=O)(O)O [GLYPHOSATE] | Not Active | Not Active | Not Active | Not Active | Not Active | Not Active | Not Active | – | –
4 | c1ccc2c(c1)Nc1ccccc1S2 [PHENOTHIAZINE] | Not Active | Not Active | Not Active | Not Active | Not Active | Not Active | Not Active | – | –
5 | OC[C@H]1OC2C3[C@@H](CO)OC(O[C@H]4[C@H](O)[C@@H](O)[C@@H](O[C@H]5[C@H](O)[C@@H](O)[C@@H](O[C@H]6[C@H](O)[C@@H](O)[C@@H](O[C@H]7[C@H](O)[C@@H](O)[C@@H](O[C@H]8[C@H](O)[C@@H](O)[C@@H](O[C@H]9[C@H](O)[C@@H](O)C(OC1[C@H](O)[C@H]2O)O[C@@H]9CO)O[C@@H]8CO)O[C@@H]7CO)O[C@@H]6CO)O[C@@H]5CO)O[C@@H]4CO)[C@H](O)[C@H]3O | Not Active | Not Active | Not Active | Not Active | Not Active | Not Active | Not Active | – | –
6 | CC(C)Cc1ccc([C@H](C)C(=O)O)cc1 [DEXIBUPROFEN] | Not Active | Not Active | Not Active | Not Active | Not Active | Not Active | Not Active | – | –
7 | CC(N)Cc1c[nH]c2ccc(OCc3cccs3)cc12 (stereo unspecified) [BW-723C86] | Not Active | Not Active | Not Active | Not Active | Not Active | Not Active | Not Active | – | –
8 | CC(=O)[C@]1(O)Cc2c(O)c3c(c(O)c2[C@@H](O[C@H]2C[C@H](N)[C@H](O)[C@H](C)O2)C1)C(=O)c1ccccc1C3=O [IDARUBICIN] | Not Active | Not Active | Not Active | Not Active | Not Active | Not Active | Not Active | – | –
9 | NC(=O)NC(=O)Cc1ccccc1 [PHENACEMIDE] | Not Active | Not Active | Not Active | Not Active | Not Active | Not Active | Not Active | – | –
10 | Nc1ccc(C(=O)O)c(O)c1 [AMINOSALICYLIC ACID] | Not Active | Not Active | Not Active | Not Active | Not Active | Not Active | Not Active | – | –
11 | Nc1nc(N)c2nc(CNc3ccc(C(=O)N[C@@H](CCC(=O)O)C(=O)O)cc3)cnc2n1 [AMINOPTERIN] | Not Active | Not Active | Not Active | Not Active | Not Active | Not Active | Not Active | – | –
12 | c1ccc(Cn2ccnc2)cc1 | Not Active | Not Active | Not Active | Not Active | Not Active | Not Active | Not Active | – | –
13 | CC(C)(C#N)c1cc(Cn2cncn2)cc(C(C)(C)C#N)c1 [ANASTROZOLE] | Not Active | Not Active | Not Active | Not Active | Not Active | Not Active | Not Active | – | –
14 | COc1cc(/C=C/C(=O)O)ccc1O [FERULATE] | Not Active | Not Active | Not Active | Not Active | Not Active | Not Active | Not Active | – | –
15 | COc1cc([C@@H]2c3cc4c(cc3[C@H](O)[C@H]3COC(=O)[C@H]23)OCO4)cc(OC)c1OC [PODOFILOX] | Not Active | Not Active | Not Active | Not Active | Not Active | Not Active | Not Active | – | –
16 | C[N+](C)(C)CCOC(N)=O.[Cl-] [CARBACHOL] | Not Active | Not Active | Not Active | Not Active | Not Active | Not Active | Not Active | – | –
17 | CC1(COc2ccc(CC3SC(=O)NC3=O)cc2)CCCCC1 (stereo unspecified) [CIGLITAZONE] | Not Active | Not Active | Not Active | Not Active | Not Active | – | Not Active | 4.54 | 5.42
18 | Oc1ncnc2[nH]ncc12 [ALLOPURINOL] | Not Active | Not Active | Not Active | Not Active | Not Active | Not Active | Not Active | – | –
19 | Cc1cc(C(C)(C)C)c(O)c(C)c1CC1=NCCN1 [OXYMETAZOLINE] | Not Active | Not Active | Not Active | Not Active | Not Active | Not Active | Not Active | – | –
20 | CC(C)Cn1cnc2c(N)nc3ccccc3c21 [IMIQUIMOD] | Not Active | Not Active | Not Active | Not Active | Not Active | Not Active | Not Active | – | –
